Assays:
Id1-E47 interaction = biological target: T1, Id1-E47 interaction (Homo sapiens, UniProt P41134); assay: Gel shift assay: E47 binding to MCK E-box oligonucleotide in the presence of Id1; assay type: biochemical
T1 sequence (P41134 1-155): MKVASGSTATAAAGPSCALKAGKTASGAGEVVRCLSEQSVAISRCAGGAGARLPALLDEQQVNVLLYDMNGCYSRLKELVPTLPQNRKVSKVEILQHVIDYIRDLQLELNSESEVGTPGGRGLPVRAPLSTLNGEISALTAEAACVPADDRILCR
Description: Gel shift assays were performed using the 376 small molecules identified in the in silico drug screen and peptide synthesis. The identified compounds were then dissolved in 5% DMSO to a concentration of 100 μm and reacted in binding mixtures that contained E47, Id1 and Mck. As controls, recombinant human E47 was used in a standard binding reaction that contained ^32P labeled MCK double stranded oligonucleotides containing consensus E-Box response element (MCK-5′ TTGATCCCCCCAACACCTGCTGCCTGAAGCT (SEQ ID NO. 1)) and 100 ng of Id1 was added to a standard binding reaction using E47 and p32 labeled MCK. After 30 minutes of incubation, the reaction mixtures were resolved on a 5% non-denaturing polyacrylamide gel and autoradiographed.

DU145 cells = assay: Cell survival/morphology by microscopy, DU145 prostate cancer cells; assay type: cell-based, human; conditions: concentration of 1 um (FIG. 6)
Description: Prostate cancer cell lines DU145 and PC3 (in 10% BCS) were obtained from American Type Culture Collection (Rockville, Md.). The cells were cultured in Ham's F12 (Gibco, Carlsbad, Calif.) medium containing 10% BCS (Hyclone, Logan, Utah) and appropriate antibiotics (pen/strep, fungizaone, and gentamycin (Invitrogen Inc., Carlsbad, Calif.). All cells were cultured at 37° C. in a fully humidified atmosphere containing 5% CO2.
At 50% confluence, the cells were treated with either 100 μM DMSO, 1000 mOsmol of urea+NaCL, 1 μM N-[3-(1,3-benzodioxol-5-yl)-3-(2-methoxyphenyl)propyl]-N-benzylpropanamide, 10 μM N-[3-(1,3-benzodioxol-5-yl)-3-(2-methoxyphenyl)propyl]-N-benzylpropanamide, and 100 μM N-[3-(1,3-benzodioxol-5-yl)-3-(2-methoxyphenyl)propyl]-N-benzylpropanamide, 1 μM N′-(4-isopropylphenyl)-1-benzothiophene-2-carbohydrazide, 10 μM N′-(4-isopropylphenyl)-1-benzothiophene-2-carbohydrazide, or 100 μM N′-(4-isopropylphenyl)-1-benzothiophene-2-carbohydrazide. The cell morphology and growth was monitored daily for 1 week by microscopy for changes in morphology or cell death. Apoptosis was determined by measuring caspase 3 and caspase 7 activities using the Caspase-Glo 3/7 Assay system from Promega (Madison, Wis.).

CC(C)c1ccc(NNC(=O)c2cc3ccccc3s2)cc1 [N′-(4-isopropylphenyl)-1-benzothiophene-2-carbohydrazide]
dose dependence of effect in the gel shift assay (Id1-E47 interaction): dose-proportionality
anti-Id activity in the gel shift assay (shifted band of bound E47-MCK in the presence of Id1) (Id1-E47 interaction; compound 100 μm in 5% DMSO, E47, Id1 and MCK, 30 minutes): restore the binding between E47-MCK in the presence of Id1
survival of DU145 cells (DU145 cells): able to induce cell death
